Laboratory results: ChEMBL document CHEMBL1138974 (Bioorg Med Chem Lett, 2006)
Calls of active or inactive are those of the source. The calls are words filed in the database; no cut-off is given here.

How the values were obtained:
[1] = Intrinsic clearance in rat microsome; type: ADME; conditions: microsomes
[2] = Intrinsic clearance in human microsome; type: ADME; conditions: microsomes
[3] = Ratio of drug level in brain against plasma in rat; type: ADME, organism-based; conditions: read-out: BPR
[4] = Oral bioavailability in rat; type: ADME, organism-based; conditions: in vivo
[5] = Clearance in rat; type: ADME, organism-based; conditions: in vivo
[6] = Volume of distribution in rat; type: ADME, organism-based; conditions: in vivo, read-out: Vss
[7] = target: T1, Sodium- and chloride-dependent glycine transporter 1 (Homo sapiens, UniProt P48067); test: (§1) Inhibition of [3H]glycine uptake at human GlyT1 by radiometric assay
T1 sequence (P48067 whole entry): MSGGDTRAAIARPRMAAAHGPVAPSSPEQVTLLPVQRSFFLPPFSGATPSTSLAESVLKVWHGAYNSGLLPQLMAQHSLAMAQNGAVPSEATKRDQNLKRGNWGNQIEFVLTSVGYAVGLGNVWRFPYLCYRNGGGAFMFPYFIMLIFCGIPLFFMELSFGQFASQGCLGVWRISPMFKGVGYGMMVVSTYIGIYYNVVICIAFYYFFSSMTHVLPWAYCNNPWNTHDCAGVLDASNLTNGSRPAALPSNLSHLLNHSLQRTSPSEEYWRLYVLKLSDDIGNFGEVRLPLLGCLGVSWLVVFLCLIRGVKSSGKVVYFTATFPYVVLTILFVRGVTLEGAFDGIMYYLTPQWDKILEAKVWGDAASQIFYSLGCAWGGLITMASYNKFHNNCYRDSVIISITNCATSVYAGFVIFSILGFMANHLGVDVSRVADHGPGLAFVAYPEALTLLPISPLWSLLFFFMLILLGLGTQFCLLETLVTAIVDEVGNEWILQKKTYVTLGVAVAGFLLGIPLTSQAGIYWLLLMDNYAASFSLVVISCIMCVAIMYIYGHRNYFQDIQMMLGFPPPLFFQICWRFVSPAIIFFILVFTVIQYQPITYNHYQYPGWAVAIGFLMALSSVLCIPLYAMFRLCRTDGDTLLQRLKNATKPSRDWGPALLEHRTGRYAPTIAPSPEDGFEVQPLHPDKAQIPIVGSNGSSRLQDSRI

[8] = Intrinsic clearance in mouse microsome; type: ADME; conditions: microsomes
[9] = target: Voltage-gated inwardly rectifying potassium channel KCNH2 (Homo sapiens, UniProt Q12809); test: Inhibition of hERG potassium channel expressed in CHO cells by whole cell patch clamp method; type: toxicity, cell-based
[10] = Dissociation constant, pKa of the compound; type: physicochemical
[11] = target: T2, Sodium- and chloride-dependent glycine transporter 2 (Homo sapiens, UniProt Q9Y345); test: (§2) Inhibition of [3H]glycine uptake at human GlyT2 by radiometric assay
T2 sequence (Q9Y345 whole entry): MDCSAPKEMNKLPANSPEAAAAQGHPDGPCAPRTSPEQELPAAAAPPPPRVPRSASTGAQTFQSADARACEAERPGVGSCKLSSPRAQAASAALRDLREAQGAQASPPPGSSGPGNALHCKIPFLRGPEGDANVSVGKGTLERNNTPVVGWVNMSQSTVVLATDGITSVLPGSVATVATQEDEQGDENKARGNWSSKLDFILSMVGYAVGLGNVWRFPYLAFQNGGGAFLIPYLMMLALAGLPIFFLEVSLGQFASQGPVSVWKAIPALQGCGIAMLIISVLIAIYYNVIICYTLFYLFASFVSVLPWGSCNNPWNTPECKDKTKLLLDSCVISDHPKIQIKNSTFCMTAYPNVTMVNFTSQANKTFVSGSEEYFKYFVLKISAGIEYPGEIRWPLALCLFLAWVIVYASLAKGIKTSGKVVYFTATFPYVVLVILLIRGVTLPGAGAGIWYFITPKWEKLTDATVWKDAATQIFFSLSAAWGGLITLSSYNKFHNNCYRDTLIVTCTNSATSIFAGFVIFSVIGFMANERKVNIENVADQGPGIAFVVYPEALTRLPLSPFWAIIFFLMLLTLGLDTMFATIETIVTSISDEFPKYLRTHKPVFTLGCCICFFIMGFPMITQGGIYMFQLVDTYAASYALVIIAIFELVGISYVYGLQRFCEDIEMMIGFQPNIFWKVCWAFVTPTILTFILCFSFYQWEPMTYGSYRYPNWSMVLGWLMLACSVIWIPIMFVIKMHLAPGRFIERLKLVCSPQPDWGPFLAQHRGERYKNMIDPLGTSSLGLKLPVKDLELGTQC

Nociceptin receptor = Nociceptin receptor (Homo sapiens, UniProt P41146); test: Displacement of [3H]NOP from human NOP receptors expressed in HEK293 cells; type: cell-based; conditions: hek293
[12] = target: T3, Sodium- and chloride-dependent glycine transporter 1 (Homo sapiens) (UniProt P48067); test: as §1
T3 sequence (whole entry): T1 sequence (P48067 whole entry)

[13] = target: T4, Sodium- and chloride-dependent glycine transporter 2 (Homo sapiens) (UniProt Q9Y345); test: as §2
T4 sequence (whole entry): T2 sequence (Q9Y345 whole entry)

[14] = Oral bioavailability in mouse; type: ADME, organism-based; conditions: in vivo
[15] = Clearance in mouse; type: ADME, organism-based; conditions: in vivo
[16] = Volume of distribution in mouse; type: ADME, organism-based; conditions: in vivo, read-out: Vss

Sequence of Voltage-gated inwardly rectifying potassium channel KCNH2 (Q12809 whole entry): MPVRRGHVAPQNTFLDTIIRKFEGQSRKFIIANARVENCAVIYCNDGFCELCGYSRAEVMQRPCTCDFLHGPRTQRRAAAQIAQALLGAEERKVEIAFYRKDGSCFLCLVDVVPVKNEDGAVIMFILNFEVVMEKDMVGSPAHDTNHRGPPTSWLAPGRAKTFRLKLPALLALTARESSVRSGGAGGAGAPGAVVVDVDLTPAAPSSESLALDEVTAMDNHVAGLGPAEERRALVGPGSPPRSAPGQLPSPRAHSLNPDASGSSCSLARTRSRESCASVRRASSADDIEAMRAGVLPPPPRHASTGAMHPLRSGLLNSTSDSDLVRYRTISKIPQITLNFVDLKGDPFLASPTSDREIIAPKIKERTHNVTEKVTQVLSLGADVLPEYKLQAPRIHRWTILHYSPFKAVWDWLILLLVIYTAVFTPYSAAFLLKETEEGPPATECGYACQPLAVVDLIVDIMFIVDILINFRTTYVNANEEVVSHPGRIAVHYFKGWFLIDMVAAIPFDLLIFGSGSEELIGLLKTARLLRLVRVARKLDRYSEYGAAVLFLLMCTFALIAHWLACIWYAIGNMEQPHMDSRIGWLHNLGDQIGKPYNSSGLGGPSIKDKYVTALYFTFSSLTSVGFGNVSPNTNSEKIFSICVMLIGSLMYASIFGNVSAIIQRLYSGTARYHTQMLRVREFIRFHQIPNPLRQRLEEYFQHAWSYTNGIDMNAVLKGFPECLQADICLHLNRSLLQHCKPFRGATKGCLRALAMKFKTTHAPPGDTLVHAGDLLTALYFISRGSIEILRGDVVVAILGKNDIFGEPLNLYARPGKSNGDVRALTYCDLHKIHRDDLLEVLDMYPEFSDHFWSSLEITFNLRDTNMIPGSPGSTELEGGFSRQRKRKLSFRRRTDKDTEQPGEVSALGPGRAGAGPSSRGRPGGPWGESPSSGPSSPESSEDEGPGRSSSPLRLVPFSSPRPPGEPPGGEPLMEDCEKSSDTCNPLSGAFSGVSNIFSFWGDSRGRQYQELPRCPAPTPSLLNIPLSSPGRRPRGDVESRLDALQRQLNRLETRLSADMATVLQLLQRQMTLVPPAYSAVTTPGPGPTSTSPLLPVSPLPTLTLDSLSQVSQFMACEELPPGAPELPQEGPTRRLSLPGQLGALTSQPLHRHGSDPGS
Sequence of Nociceptin receptor (P41146 whole entry): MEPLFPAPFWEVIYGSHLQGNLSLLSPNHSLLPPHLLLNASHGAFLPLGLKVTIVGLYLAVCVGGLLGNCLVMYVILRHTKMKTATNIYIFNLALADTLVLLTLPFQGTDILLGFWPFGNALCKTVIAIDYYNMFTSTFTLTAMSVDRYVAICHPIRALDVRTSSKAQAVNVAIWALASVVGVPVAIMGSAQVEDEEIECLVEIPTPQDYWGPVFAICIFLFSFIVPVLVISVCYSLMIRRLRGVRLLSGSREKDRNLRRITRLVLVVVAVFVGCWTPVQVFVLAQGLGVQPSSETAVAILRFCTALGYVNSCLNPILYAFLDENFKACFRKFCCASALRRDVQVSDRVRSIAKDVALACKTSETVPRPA

Row | SMILES | microsomal CLint [1] [µL/min/mg] | microsomal CLint [2] [µL/min/mg] | Kp [3] | bioavailability [4] [%] | clearance [5] [mL/min/kg] | Vd [6] [L/kg] | EC50 [7] [nM] | microsomal CLint [8] [µL/min/mg] | IC50 [9] [nM] | pKa [10] | EC50 [11] [nM] | IC50 (Nociceptin receptor) [nM] | Activity [12] [nM] | Activity [13] | bioavailability [14] [%] | clearance [15] [mL/min/kg] | Vd [16] [L/kg]
1 | O=C1NCN(c2ccccc2)C12CCN(C1CCCCC1c1ccccc1)CC2 (stereo not given) | 240 | 68 | 1.6 | 8 | 120 | 7.3 | – | – | – | – | – | – | – | – | – | – | –
2 | O=C1NCN(c2ccccc2)C12CCN(C1CCCCC1(O)c1ccc(F)cc1)CC2 (stereo not given) | 499 | 78 | – | – | – | – | 24 | – | – | – | – | – | – | – | – | – | –
3 | O=C1NCC(c2ccccc2)C12CCN(C1CCCCC1(O)c1ccc(F)cc1)CC2 (single isomer, unassigned; diastereomer 1) | – | 44 | – | – | – | – | 70 | 13 | 1800 | 8.54 | > 30000 | > 10000 | – | – | – | – | –
4 | O=C1NCC(c2ccc(F)cc2)C12CCN(C1CCCCC1(O)c1ccccc1)CC2 (stereo not given) | – | – | – | – | – | – | – | – | – | 6.89 | – | – | 91 | inactive | – | – | –
5 | O=C1NC[C@@H](c2ccccc2)C12CCN(C1CCCCC1c1ccccc1)CC2 (stereo in doubt; 27) | – | 23 | 5.2 | – | 63 | 4.3 | 61 | 36 | 1400 | 8.85 | – | – | – | – | 27 | 99 | 8.9
